The text below walks through data of patent US20220356174A1, “PYRIDIN-2-ONE COMPOUNDS USEFUL AS SMARCA2 ANTAGONISTS” (Epizyme, Inc., priority 2018, published 2022).

The target in one assay is FL-SMARCA4 (Homo sapiens, UniProt P51532). Briefly: SMARCA4 ATPase activity assay (ADP-Glo, chicken mononucleosome substrate). The note with it: FL-SMARCA4 IC50. Background: ADP-Glo turns the ADP formed in a reaction into a luminescent signal.
Chain of FL-SMARCA4 (P51532 whole entry): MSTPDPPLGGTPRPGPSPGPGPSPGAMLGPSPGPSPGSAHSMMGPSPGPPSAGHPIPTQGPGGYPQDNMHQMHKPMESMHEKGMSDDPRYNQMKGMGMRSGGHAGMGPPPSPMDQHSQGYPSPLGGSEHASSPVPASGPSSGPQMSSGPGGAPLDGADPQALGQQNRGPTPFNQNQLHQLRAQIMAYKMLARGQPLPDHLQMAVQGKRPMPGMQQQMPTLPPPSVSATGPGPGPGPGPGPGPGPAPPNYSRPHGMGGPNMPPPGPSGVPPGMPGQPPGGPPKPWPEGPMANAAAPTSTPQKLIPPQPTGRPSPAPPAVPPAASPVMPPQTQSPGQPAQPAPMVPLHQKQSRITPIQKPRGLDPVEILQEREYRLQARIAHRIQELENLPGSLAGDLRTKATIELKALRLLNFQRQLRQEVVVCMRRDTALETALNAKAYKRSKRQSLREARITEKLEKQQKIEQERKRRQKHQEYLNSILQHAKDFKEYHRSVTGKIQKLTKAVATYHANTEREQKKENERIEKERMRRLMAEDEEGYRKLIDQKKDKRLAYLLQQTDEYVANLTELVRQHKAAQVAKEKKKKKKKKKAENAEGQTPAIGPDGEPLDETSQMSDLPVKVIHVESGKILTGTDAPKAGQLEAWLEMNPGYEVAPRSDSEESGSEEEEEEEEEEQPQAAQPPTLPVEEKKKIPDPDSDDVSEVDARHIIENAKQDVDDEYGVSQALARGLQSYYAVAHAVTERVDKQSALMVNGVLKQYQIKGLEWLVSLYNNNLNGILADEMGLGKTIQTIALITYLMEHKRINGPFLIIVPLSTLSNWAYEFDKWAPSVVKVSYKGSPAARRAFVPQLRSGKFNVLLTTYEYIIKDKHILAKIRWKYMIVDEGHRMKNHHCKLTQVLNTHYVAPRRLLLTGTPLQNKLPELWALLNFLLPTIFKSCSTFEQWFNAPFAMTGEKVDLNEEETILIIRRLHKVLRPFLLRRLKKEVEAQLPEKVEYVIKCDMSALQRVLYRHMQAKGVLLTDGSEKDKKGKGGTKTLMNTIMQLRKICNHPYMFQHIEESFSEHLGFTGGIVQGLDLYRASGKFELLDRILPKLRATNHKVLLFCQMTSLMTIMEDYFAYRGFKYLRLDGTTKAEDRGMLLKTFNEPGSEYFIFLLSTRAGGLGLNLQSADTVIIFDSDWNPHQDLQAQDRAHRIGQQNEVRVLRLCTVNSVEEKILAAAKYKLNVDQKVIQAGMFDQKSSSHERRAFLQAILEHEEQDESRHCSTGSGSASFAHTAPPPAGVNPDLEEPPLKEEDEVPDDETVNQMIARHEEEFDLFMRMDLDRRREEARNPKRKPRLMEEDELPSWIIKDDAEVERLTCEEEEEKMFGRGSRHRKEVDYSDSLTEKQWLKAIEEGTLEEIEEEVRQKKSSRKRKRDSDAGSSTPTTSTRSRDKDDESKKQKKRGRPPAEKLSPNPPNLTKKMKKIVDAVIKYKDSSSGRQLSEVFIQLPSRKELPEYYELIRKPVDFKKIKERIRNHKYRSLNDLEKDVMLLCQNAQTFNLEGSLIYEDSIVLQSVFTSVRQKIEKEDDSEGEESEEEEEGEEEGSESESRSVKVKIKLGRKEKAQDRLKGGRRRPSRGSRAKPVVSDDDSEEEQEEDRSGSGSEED
`COc1c(C(=O)Nc2cc(F)c(=O)n(CC(F)F)c2)sc(Cl)c1Cl` [Compound 46d] yielded an IC50 greater than 50 µM.
Still for that read-out and setting: in the case of `CCc1c(NC(=O)c2cc(Cl)c(Cl)s2)ccc(=O)n1CC` [Compound 30d] it was greater than 50 µM; in that of `O=C(Nc1cc(F)c(=O)n(CC(F)F)c1)c1cc(C(O)C(F)(F)F)c(Cl)s1` (centres unmarked) [Compound 47d], greater than 50 µM; in that of `CCn1cc(NC(=O)c2cc(Cl)c(Cl)s2)c(Cl)cc1=O` [Compound 24d], greater than 50 µM.

Staying with this assay, now noted: FL-SMARCA4 IC50, Table 3a.2; SMARCA4 5 nM, ATP 250 uM, mononucleosome 10 nM.
On to `O=C(Nc1ccc(=O)n(CC(F)(F)F)c1)c1nc2cc(F)c(Cl)cc2[nH]1` [Compound 41a], for which the IC50 is greater than 50 µM.
Compound `CCn1cc(NC(=O)c2cc3ccccc3s2)ccc1=O` [Compound 36a] registered an IC50 greater than 50 µM.
Same read-out and setting: then `O=C(Nc1ccc(=O)n(CC(F)(F)F)c1)c1nc2cc(Cl)c(Cl)cc2[nH]1` [Compound 43a], with greater than 50 µM.

The same assay, now with this note: FL-SMARCA4 IC50, Table 3b.2; SMARCA4 5 nM, ATP 250 uM, mononucleosome 10 nM.
Regarding `N#Cc1cc(C(=O)Nc2cc(F)c(=O)n(CCF)c2)ccc1Cl` [Compound 18b], the IC50 came to 5.34 µM.
The compound `CCn1cc(NC(=O)c2cc(Cl)cc(Cl)c2)ccc1=O` [Compound 5b] came in with an IC50 greater than 50 µM.
On the same count and under the same terms, then `CCn1cc(NC(=O)C2CCCC2)ccc1=O` [Compound 11b], with greater than 50 µM; and `CCn1cc(NC(=O)[C@H]2CC[C@@H](Cl)C2)ccc1=O` [Compound 16b], with greater than 50 µM; and `CCn1cc(NC(=O)c2ccc(Cl)cc2)ccc1=O` [Compound 7b], with greater than 50 µM.

The same assay, now with this note: FL-SMARCA4 IC50, Table 3.2; ATPase assay, enzyme 5 nM, ATP 250 uM, chicken mononucleosome 10 nM, 30 min preincubation.
In turn, `O=C(Nc1cc(F)c(=O)n(CCF)c1)c1ccc(-c2nccs2)s1` [Compound 317] yielded an IC50 greater than 50 µM.
Same read-out and setting: in the case of `Cn1c(C(=O)Nc2cc(F)c(=O)n(CCF)c2)cc(Cl)c1Cl` [Compound 153] it was 0.715 µM; in that of `O=C(Nc1cc(F)c(=O)n(CCF)c1)c1cc(C(F)(F)F)no1` [Compound 264], 38.5 µM; in that of `O=C(Nc1cc(F)c(=O)n(CCF)c1)c1ccc(-c2ccncc2)s1` [Compound 314], greater than 50 µM.
Consider `CCn1cc(NC(=O)c2cn(C)c(Cl)n2)ccc1=O` [Compound 108], for which the IC50 was greater than 50 µM.
Same read-out and setting: then `O=C(Nc1cc(F)c(=O)n(CCF)c1)c1cnc(-n2ccnc2)s1` [Compound 271], with greater than 50 µM.
In the case of `O=C(Nc1cc(F)c(=O)n(CC(F)(F)F)c1)c1cc(Cl)c(Cl)o1` [Compound 255], the IC50 was greater than 50 µM.
`CCn1cc(NC(=O)c2ncc(Cl)s2)ccc1=O` [Compound 56]: the IC50 was greater than 50 µM.
`CCn1cc(NC(=O)c2cc(C#N)c(Cl)s2)cc(F)c1=O` [Compound 180] had an IC50 of 0.383 µM.
Consider `CNc1ncc(C(=O)Nc2cc(F)c(=O)n(CCF)c2)s1` [Compound 228], for which the IC50 was greater than 50 µM.
Same read-out and setting: then `O=C(Nc1cc(F)c(=O)n(CCF)c1)c1ccc(-c2cccnc2)s1` [Compound 313], with greater than 50 µM.
Still for that read-out and setting: then `CCn1cc(NC(=O)c2cc(Cl)c(C#N)n2C)cc(F)c1=O` [Compound 174], with 1.47 µM; and `CCn1cc(NC(=O)c2cc(Cl)c(Cl)s2)cc(Cc2ccccc2)c1=O` [Compound 120], with greater than 50 µM; and `CCn1cc(NC(=O)c2cc(Cl)n[nH]2)ccc1=O` [Compound 94], with 11.5 µM.
Still for that read-out and setting: then `Cn1c(C(=O)Nc2cc(F)c(=O)n(CC(F)(F)F)c2)cc(Cl)c1C#N` [Compound 160], with 0.864 µM; and `NC(=O)c1ccc(C(=O)Nc2cc(F)c(=O)n(CCF)c2)s1` [Compound 303], with greater than 50 µM.

In the next assay the target is T1, FL-SMARCA2 (full-length human SMARCA2 isoform 1) (Homo sapiens, UniProt P51531).
T1 construct: FLAG tag (YKDDDDK) (C); made in house; host or cells: Sf21 insect cells (baculovirus, pFastBacI)
T1 sequence (P51531 with tags, fused parts or gaps): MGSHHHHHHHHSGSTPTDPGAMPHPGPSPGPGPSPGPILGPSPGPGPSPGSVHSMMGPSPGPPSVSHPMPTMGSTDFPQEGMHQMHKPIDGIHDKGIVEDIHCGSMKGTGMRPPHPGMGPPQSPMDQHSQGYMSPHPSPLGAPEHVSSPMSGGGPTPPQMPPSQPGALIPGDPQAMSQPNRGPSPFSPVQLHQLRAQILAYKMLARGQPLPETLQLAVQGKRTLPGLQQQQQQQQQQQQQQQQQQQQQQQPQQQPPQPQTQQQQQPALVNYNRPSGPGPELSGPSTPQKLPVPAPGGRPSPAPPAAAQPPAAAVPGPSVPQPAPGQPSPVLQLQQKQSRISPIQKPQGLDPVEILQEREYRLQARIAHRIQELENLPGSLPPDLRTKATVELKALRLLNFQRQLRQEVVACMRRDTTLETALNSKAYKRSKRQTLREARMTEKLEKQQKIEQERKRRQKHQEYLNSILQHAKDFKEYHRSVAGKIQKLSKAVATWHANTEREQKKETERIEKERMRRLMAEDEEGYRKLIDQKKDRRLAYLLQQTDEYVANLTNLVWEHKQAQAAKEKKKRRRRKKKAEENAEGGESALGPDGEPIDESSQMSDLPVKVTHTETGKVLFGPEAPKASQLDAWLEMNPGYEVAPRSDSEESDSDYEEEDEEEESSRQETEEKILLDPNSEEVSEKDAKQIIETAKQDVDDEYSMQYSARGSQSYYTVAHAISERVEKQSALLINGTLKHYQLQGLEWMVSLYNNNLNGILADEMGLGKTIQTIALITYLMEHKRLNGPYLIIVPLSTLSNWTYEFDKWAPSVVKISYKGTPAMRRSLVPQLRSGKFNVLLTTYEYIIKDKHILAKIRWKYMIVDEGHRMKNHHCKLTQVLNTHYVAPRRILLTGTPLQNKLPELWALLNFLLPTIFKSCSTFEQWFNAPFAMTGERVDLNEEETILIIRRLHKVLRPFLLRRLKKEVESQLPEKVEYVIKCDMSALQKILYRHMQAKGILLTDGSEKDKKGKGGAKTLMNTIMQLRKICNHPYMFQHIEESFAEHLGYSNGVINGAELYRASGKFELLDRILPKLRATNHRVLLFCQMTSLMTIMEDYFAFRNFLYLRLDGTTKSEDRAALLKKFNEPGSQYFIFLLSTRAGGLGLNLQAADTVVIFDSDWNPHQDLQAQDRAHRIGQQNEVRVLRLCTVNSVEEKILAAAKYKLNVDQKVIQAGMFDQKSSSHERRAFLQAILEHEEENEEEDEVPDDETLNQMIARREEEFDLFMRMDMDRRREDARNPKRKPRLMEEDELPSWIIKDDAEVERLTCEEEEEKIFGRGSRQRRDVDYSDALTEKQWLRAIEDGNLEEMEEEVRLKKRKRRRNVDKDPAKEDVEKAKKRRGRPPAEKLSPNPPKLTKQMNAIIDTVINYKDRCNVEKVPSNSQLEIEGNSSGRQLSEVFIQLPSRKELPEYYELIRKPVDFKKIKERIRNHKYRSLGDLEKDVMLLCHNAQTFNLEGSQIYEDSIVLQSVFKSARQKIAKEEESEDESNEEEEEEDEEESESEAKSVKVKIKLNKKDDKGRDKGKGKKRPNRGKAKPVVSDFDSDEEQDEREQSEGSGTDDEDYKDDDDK
The experiment in a line: SMARCA2 ATPase activity assay (ADP-Glo, chicken mononucleosome substrate). Format: biochemical. The note with it: Table 3a.1; SMARCA2 5 nM, ATP 250 uM, mononucleosome 10 nM.
Compound `O=C(Nc1ccc(=O)n(CC(F)(F)F)c1)c1nc2cc(F)c(Cl)cc2[nH]1` [Compound 41a] showed an IC50 greater than 50 µM.
On the same count and under the same terms, then `CCn1cc(NC(=O)c2cc3ccccc3s2)ccc1=O` [Compound 36a], with greater than 50 µM; and `O=C(Nc1ccc(=O)n(CC(F)(F)F)c1)c1nc2cc(Cl)c(Cl)cc2[nH]1` [Compound 43a], with greater than 50 µM.

The same assay, now with this note: Table 3b.1; SMARCA2 5 nM, ATP 250 uM, mononucleosome 10 nM.
On to `N#Cc1cc(C(=O)Nc2cc(F)c(=O)n(CCF)c2)ccc1Cl` [Compound 18b], for which the IC50 stood at 0.917 µM.
The same measure, in the same setting: in the case of `CCn1cc(NC(=O)c2cc(Cl)cc(Cl)c2)ccc1=O` [Compound 5b] it was greater than 50 µM.
Compound `CCn1cc(NC(=O)C2CCCC2)ccc1=O` [Compound 11b] gave an IC50 greater than 50 µM.
The compound `CCn1cc(NC(=O)[C@H]2CC[C@@H](Cl)C2)ccc1=O` [Compound 16b] yielded an IC50 greater than 50 µM.
The same measure, in the same setting: in the case of `CCn1cc(NC(=O)c2ccc(Cl)cc2)ccc1=O` [Compound 7b] it was greater than 50 µM.

Staying with this assay, now noted: Table 3.1; ATPase assay, enzyme 5 nM, ATP 250 uM, chicken mononucleosome 10 nM, 30 min preincubation.
In turn, `O=C(Nc1cc(F)c(=O)n(CCF)c1)c1ccc(-c2nccs2)s1` [Compound 317] showed an IC50 greater than 50 µM.
Compound `Cn1c(C(=O)Nc2cc(F)c(=O)n(CCF)c2)cc(Cl)c1Cl` [Compound 153] gave an IC50 of 0.147 µM.
With `O=C(Nc1cc(F)c(=O)n(CCF)c1)c1cc(C(F)(F)F)no1` [Compound 264], the IC50 was 6.23 µM.
On the same count and under the same terms, in the case of `O=C(Nc1cc(F)c(=O)n(CCF)c1)c1ccc(-c2ccncc2)s1` [Compound 314] it was greater than 50 µM.
The same measure, in the same setting: in the case of `CCn1cc(NC(=O)c2cn(C)c(Cl)n2)ccc1=O` [Compound 108] it was greater than 50 µM.
Still for that read-out and setting: then `O=C(Nc1cc(F)c(=O)n(CCF)c1)c1cnc(-n2ccnc2)s1` [Compound 271], with greater than 50 µM; and `O=C(Nc1cc(F)c(=O)n(CC(F)(F)F)c1)c1cc(Cl)c(Cl)o1` [Compound 255], with 16.7 µM.
Regarding `CCn1cc(NC(=O)c2ncc(Cl)s2)ccc1=O` [Compound 56], the IC50 was greater than 50 µM.
Same read-out and setting: then `CCn1cc(NC(=O)c2cc(C#N)c(Cl)s2)cc(F)c1=O` [Compound 180], with 0.0846 µM; and `CNc1ncc(C(=O)Nc2cc(F)c(=O)n(CCF)c2)s1` [Compound 228], with greater than 50 µM; and `O=C(Nc1cc(F)c(=O)n(CCF)c1)c1ccc(-c2cccnc2)s1` [Compound 313], with greater than 50 µM.
For the compound `CCn1cc(NC(=O)c2cc(Cl)c(C#N)n2C)cc(F)c1=O` [Compound 174], the IC50 amounted to 0.388 µM.
Same read-out and setting: in the case of `CCn1cc(NC(=O)c2cc(Cl)c(Cl)s2)cc(Cc2ccccc2)c1=O` [Compound 120] it was greater than 50 µM; in that of `CCn1cc(NC(=O)c2cc(Cl)n[nH]2)ccc1=O` [Compound 94], 3.15 µM.
The same measure, in the same setting: in the case of `Cn1c(C(=O)Nc2cc(F)c(=O)n(CC(F)(F)F)c2)cc(Cl)c1C#N` [Compound 160] it was 0.224 µM; in that of `NC(=O)c1ccc(C(=O)Nc2cc(F)c(=O)n(CCF)c2)s1` [Compound 303], greater than 50 µM.

The same assay, now with this note: Table 3d.1; ATPase assay, enzyme 5 nM, ATP 250 uM, chicken mononucleosome 10 nM, 30 min preincubation; read-out: FL-SMARCA2 IC>50.
Regarding `COc1c(C(=O)Nc2cc(F)c(=O)n(CC(F)F)c2)sc(Cl)c1Cl` [Compound 46d], the IC50 is greater than 50 µM.
Regarding `CCc1c(NC(=O)c2cc(Cl)c(Cl)s2)ccc(=O)n1CC` [Compound 30d], the IC50 was greater than 50 µM.
The same measure, in the same setting: in the case of `O=C(Nc1cc(F)c(=O)n(CC(F)F)c1)c1cc(C(O)C(F)(F)F)c(Cl)s1` (centres unmarked) [Compound 47d] it was 25.1 µM.
In the case of `CCn1cc(NC(=O)c2cc(Cl)c(Cl)s2)c(Cl)cc1=O` [Compound 24d], the IC50 turned out to be 18.4 µM.
